Experiment [1] deals with T1, α3β3γ2 GABAA/BzR (Homo sapiens, UniProt P18507+P34903). Kind of experiment: Competition binding to HEK cell membranes, α3β3γ2. On the set-up: expressed in transfected cells.
Experiment [2] has as its target T2, α5β3γ2 GABAA/BzR (Homo sapiens, UniProt P18507+P31644). Kind of experiment: Competition binding to HEK cell membranes, α5β3γ2. Further details: expressed in transfected cells.
The target of experiment [3] is T3, α2β3γ2 GABAA/BzR (Homo sapiens, UniProt P18507+P47869). Kind of experiment: Competition binding to HEK cell membranes, α2β3γ2. Further details: expressed in transfected cells.
For experiment [4], the target named is T4, α1β3γ2 GABAA/BzR (Homo sapiens, UniProt P14867+P18507). Kind of experiment: Competition binding to HEK cell membranes, α1β3γ2. On the set-up: expressed in transfected cells.
Experiment [5] has as its target T5, α6β3γ2 GABAA/BzR (Homo sapiens, UniProt P18507+Q16445). The experiment is described as follows: Competition binding to HEK cell membranes, α6β3γ2. Further details: expressed in transfected cells.
Experiment [6] concerns Bz BS of GABA(A) receptors. The settings on record: cited from earlier work.
The target in experiment [7] is T5, α6β3γ2 GABAA/BzR. Further details: expressed in transfected cells; host or cells: LTK cells (given for XLi-093 only). The settings on record: cited from earlier work.
Experiment [8] has as its target T4, α1β3γ2 GABAA/BzR. On the set-up: expressed in transfected cells; host or cells: LTK cells (given for XLi-093 only). To be noted: cited from earlier work.
Experiment [9] deals with T6, α4β3γ2 GABAA/BzR (Homo sapiens, UniProt P18507+P48169).
T6 construct: expressed in transfected cells; host or cells: LTK cells (given for XLi-093 only)
The experiment is described as follows: biochemical. Format: binding.

In experiment [10] the target is T2, α5β3γ2 GABAA/BzR. On the set-up: expressed in transfected cells; host or cells: LTK cells (given for XLi-093 only). To be noted: cited from earlier work.
In experiment [11] the target is T3, α2β3γ2 GABAA/BzR. On the set-up: expressed in transfected cells; host or cells: LTK cells (given for XLi-093 only). To be noted: cited from earlier work.
Experiment [12] deals with T1, α3β3γ2 GABAA/BzR. On the set-up: expressed in transfected cells; host or cells: LTK cells (given for XLi-093 only). The settings on record: cited from earlier work.
Experiment [13] deals with T6, α4β3γ2 GABAA/BzR. The settings on record: cited from earlier work.

“And” between values parts separate entries of the source, which are not always exact repeats. Identical values can stand only once. Like-named read-outs stand apart in the source and are kept apart here. Some results are limits rather than exact numbers.

In the case of `CCOC(=O)c1ncc2[nH]c3ccc(OCc4ccccc4)cc3c2c1COC` [ZK 93423, 6-(benzyloxy)-4-(methoxymethyl)-β-carboline-3-carboxylic acid ethyl ester, reference compound], the Ki on α3β3γ2 GABAA/BzR [1] (Ki α3) came to 6 nM; at α5β3γ2 GABAA/BzR [2] (Ki α5), 4.5 nM; at α2β3γ2 GABAA/BzR [3] (Ki α2), 4.2 nM; on α1β3γ2 GABAA/BzR [4] (Ki α1), 4.1 nM; at α6β3γ2 GABAA/BzR [5] (Ki α6), 1000 nM. Further, the modulation result in [6] (Supplement Table 1) is given as “agonist”.

On to `C#Cc1ccc2[nH]c3cnc(C(=O)OC(C)(C)C)cc3c2c1` [WY-A-99-2 (WYS8)], for which the Ki is 1.63 nM at α3β3γ2 GABAA/BzR [1] (Ki α3); 208 nM and 51 nM at α5β3γ2 GABAA/BzR [2] (Ki α5); 1980 nM at α6β3γ2 GABAA/BzR [7] (Figure 33, αxβ3γ2, read-out: Affinity Ki α6); 0.972 nM at α1β3γ2 GABAA/BzR [8] (Figure 33, αxβ3γ2, read-out: Affinity Ki α1); 1980 nM on α6β3γ2 GABAA/BzR [5] (Ki α6); 2000 nM at α4β3γ2 GABAA/BzR [9]. Also, the Ki on α5β3γ2 GABAA/BzR [10] (Figure 33, αxβ3γ2, read-out: Affinity Ki α5) was 1470 nM. Moreover, the “pharmacological properties compared with classical benzodiazepine receptor antagonists” value in [6] is on record as “near GABA neutral antagonists”.

With Ro15-4513 [reference compound], the Ki on α5β3γ2 GABAA/BzR [2] (read-out: Ki α5) turned out to be 0.26 nM; at α2β3γ2 GABAA/BzR [3] (read-out: Ki α2) it was 2.6 nM. Further, the modulation entry in [6] is “inverse agonist”.

For `CCCOc1ccc2[nH]c3cnc(C(=O)OCC)c(COC)c3c2c1` [6-PBC, 6-(propyloxy)-4-(methoxymethyl)-β-carboline-3-carboxylic acid ethyl ester], the Ki at α3β3γ2 GABAA/BzR [1] (Ki α3) was 2.2 nM; at α5β3γ2 GABAA/BzR [2] (Ki α5), 2.39 nM; on α2β3γ2 GABAA/BzR [3] (Ki α2), 1.21 nM; at α1β3γ2 GABAA/BzR [4] (Ki α1) it was 0.49 nM; at α6β3γ2 GABAA/BzR [5] (Ki α6), 1340 nM. Besides, the modulation result in [6] (Supplement Table 1) is “partial agonist”.

In the case of `CCOC(=O)c1ncn2c1CN=C(c1ccccc1)c1cc(-c3ccccc3)ccc1-2` [DM-I-81 (9)], the Ki on α3β3γ2 GABAA/BzR [1] (Figure 17, read-out: Binding data Ki α3) is greater than 2000 nM; at α5β3γ2 GABAA/BzR [2] (Figure 17, read-out: Binding data Ki α5), 176 nM; at α6β3γ2 GABAA/BzR [7] (Figure 4, read-out: Ki α6) it was greater than 2000 nM; on α2β3γ2 GABAA/BzR [3] (Figure 17, read-out: Binding data Ki α2) it was greater than 2000 nM; on α1β3γ2 GABAA/BzR [8] (Figure 4, read-out: Ki α1), greater than 2000 nM; at α2β3γ2 GABAA/BzR [11] (Figure 4, read-out: Ki α2), greater than 2000 nM. For the same compound, the Ki is greater than 2000 nM at α1β3γ2 GABAA/BzR [4] (Figure 17, read-out: Binding data Ki α1); greater than 2000 nM at α3β3γ2 GABAA/BzR [12] (Figure 4, read-out: Ki α3); greater than 2000 nM on α4β3γ2 GABAA/BzR [13] (Figure 4, read-out: Ki α4); greater than 2000 nM on α6β3γ2 GABAA/BzR [5] (Figure 17, read-out: Binding data Ki α6); greater than 2000 nM on α4β3γ2 GABAA/BzR [9] (Figure 17, read-out: Binding data Ki α4).

Regarding `CCOC(=O)c1ncn2c1CN(C)C(=O)c1cc(F)ccc1-2` [Ro15-1788], in experiment [6], the modulation result is on record as “antagonist”.

As to `CCCC(=O)c1cc2c(cn1)[nH]c1ccc(F)cc12` [CM-A57], the Ki is 40 nM on α3β3γ2 GABAA/BzR [1] (read-out: Ki α3); 254 nM at α5β3γ2 GABAA/BzR [2] (read-out: Ki α5); greater than 2500 nM on α6β3γ2 GABAA/BzR [7] (read-out: Affinity Ki α6); 27 nM at α2β3γ2 GABAA/BzR [3] (read-out: Ki α2); 3.7 nM at α1β3γ2 GABAA/BzR [8] (read-out: Affinity Ki α1); 27 nM at α2β3γ2 GABAA/BzR [11] (read-out: Affinity Ki α2). Also, the Ki is 3.7 nM on α1β3γ2 GABAA/BzR [4] (read-out: Ki α1), 40 nM at α3β3γ2 GABAA/BzR [12] (read-out: Affinity Ki α3), 1000 nM at α6β3γ2 GABAA/BzR [5] (read-out: Ki α6) and 254 nM on α5β3γ2 GABAA/BzR [10] (read-out: Affinity Ki α5).

Take `CC(C)(C)OC(=O)c1cc2c(cn1)[nH]c1ccc(-c3cccs3)cc12` [35(WYS12)]: the Ki is 5000 nM on α6β3γ2 GABAA/BzR [7] (read-out: Affinity Ki α6); 37 nM on α1β3γ2 GABAA/BzR [8] (read-out: Affinity Ki α1); 166 nM at α2β3γ2 GABAA/BzR [11] (read-out: Affinity Ki α2); 314 nM at α3β3γ2 GABAA/BzR [12] (read-out: Affinity Ki α3); 2860 nM on α5β3γ2 GABAA/BzR [10] (read-out: Affinity Ki α5).

As to `C#CC#Cc1ccc2c(c1)C(=O)N1CCC[C@H]1c1c(C(=O)OCC)ncn1-2` [compound 8], the Ki is greater than 1000 nM on α6β3γ2 GABAA/BzR [7] (Figure 4, read-out: Ki α6); greater than 1000 nM at α1β3γ2 GABAA/BzR [8] (Figure 4, read-out: Ki α1); greater than 1000 nM on α2β3γ2 GABAA/BzR [11] (Figure 4, read-out: Ki α2); greater than 1000 nM on α3β3γ2 GABAA/BzR [12] (Figure 4, read-out: Ki α3); greater than 1000 nM on α4β3γ2 GABAA/BzR [13] (Figure 4, read-out: Ki α4); 64 nM on α5β3γ2 GABAA/BzR [10] (Figure 4, read-out: Ki α5).

For the compound `CC(C)(C)OC(=O)c1cc2c(cn1)[nH]c1ccc(I)cc12` [29(iodo-βCCt)], the Ki at α6β3γ2 GABAA/BzR [7] (read-out: Affinity Ki α6) was greater than 4000 nM; on α1β3γ2 GABAA/BzR [8] (read-out: Affinity Ki α1), 14.4 nM; on α2β3γ2 GABAA/BzR [11] (read-out: Affinity Ki α2) it was 44.9 nM; at α3β3γ2 GABAA/BzR [12] (read-out: Affinity Ki α3) it was 123 nM; at α4β3γ2 GABAA/BzR [13] (read-out: Affinity Ki α4), greater than 4000 nM; at α5β3γ2 GABAA/BzR [10] (read-out: Affinity Ki α5) it was 65.3 nM.

As for `CN1C(=O)CN=C(c2ccccc2)c2cc(Cl)ccc21` [diazepam], the modulation result in experiment [6] is given as “agonist”.

Take `CCOCc1ncn2c1CN(C)C(=O)c1cc(Cl)ccc1-2` [compound 6]: the Ki is greater than 300 nM at α6β3γ2 GABAA/BzR [7] (Figure 4, read-out: Ki α6); greater than 300 nM on α1β3γ2 GABAA/BzR [8] (Figure 4, read-out: Ki α1); greater than 300 nM on α2β3γ2 GABAA/BzR [11] (Figure 4, read-out: Ki α2); greater than 300 nM at α3β3γ2 GABAA/BzR [12] (Figure 4, read-out: Ki α3); 82.7 nM at α5β3γ2 GABAA/BzR [10] (Figure 4, read-out: Ki α5).

In the case of `CCOC(=O)c1cc2c(cn1)[nH]c1ccccc12` [BCCE, reference compound], the Ki on α1β3γ2 GABAA/BzR [4] (read-out: Ki α1) came out at 1.2 nM. Moreover, the modulation result in [6] is recorded as “inverse agonist”.

The values above are taken from article PMC4657098, “A Review of the Updated Pharmacophore for the Alpha 5 GABA(A) Benzodiazepine Receptor Model” (International Journal of Medicinal Chemistry, 2015).
